One assay concerns the target T1, SYK (Homo sapiens, UniProt P43405).
T1 construct: made in house; host or cells: Sf21 insect cells (baculovirus)
Briefly: SYK tyrosine kinase assay. The format is biochemical. As to conditions: 1 hour exposure. As to the method: (§1) Sf21 (IPLB-SF21-AE) cells derived from the ovarian tissue of the fall armyworm Spodotera frugiperda, were obtained from Invitrogen and maintained at 26-28° C. in Grace's insect cell medium supplemented with 10% FBS and 1.0% antibiotic/antimycotic (GIBCO-BRL). Stock cells were maintained in suspension at 0.2-1.6×10^6/ml in 600 ml total culture volume in 1 L Bellco spinner flasks at 60-90 rpm. Cell viability was maintained at 95-100% as determined by trypan blue dye exclusion.
(§2) Sf21 cells were infected with a baculovirus expression vector for BTK or SYK, as previously described (refs 18 and 19). […]
(§3) Following electrophoresis, kinase gels were dried onto Whatman 3M filter paper and subjected to phosphoimaging on a Molecular Imager (Bio-Rad, Hercules, Calif.) as well as autoradiography on film. […] For each drug concentration, a BTK or SYK kinase activity index was determined by comparing the ratios of the kinase activity in phosphorimager units (PIU) and density of the protein bands in densitometric scanning units (DSU) to those of the baseline sample and using the formula: Activity Index=[PIU of kinase band/DSU of BTK/SYK protein band]test sample: [PIU of kinase band/DSU of BTK/SYK protein band]baseline control sample.

Another assay addresses T2, BTK (Homo sapiens, UniProt Q06187).
T2 construct: made in house; host or cells: Sf21 insect cells (baculovirus)
Briefly: BTK tyrosine kinase assay. The assay is classed as biochemical. As to conditions: 1 hour exposure. As to the method:
as §1, §2, §3

For a further assay, the system named is RBL-2H3 mast cells. Nature of the assay: IgE receptor/FcεRI-mediated mast cell LTC4 release. The format is cell-based, rat. As to conditions: 1 hour prior to DNP-BSA challenge; FIG. 3B. As to the method:
Monolayers of RBL-2H3 rat mast cells were sensitized with monoclonal anti-DNP IgE antibody (0.24 mg/ml) for 1 hour at 37° C. in a 48-well tissue culture plate. Unbound IgE was removed by washing the cells with phosphate buffered saline. After washing, PIPES-buffered saline containing 1 mM calcium chloride was added to the monolayers of the RBL-2H3 cells. The cells were challenged with 20 ng/ml DNP-BSA for 30 minutes at 37° C. The plate was centrifuged at 200 g for 10 minutes at 4° C. and supernatants were saved. […]
To study the effects of compound D-58, RBL-2H3 cells were incubated with compound D-58 at the indicated concentrations or vehicle for 1 hour prior to antigen challenge. Mast cell degranulation (β-hexosaminidase release, % of total) was assessed by measuring the β-hexosaminidase levels in cell free supernatants and Triton X-100 solubilized pellets using the formula: β-hexosaminidase release, % of total=100×(β-hexosaminidase level in supernatant/β-hexosaminidase level in supernatant+solubilized pellet). […]
In order to examine the effects of compound D-58 on IgE receptor/FcεRI-mediated mast cell activation and mediator release, RBL-2H3 mast cells were exposed to increasing concentrations of this ethanone or vehicle prior to challenge with antigen (DNP-BSA). […] Mast cell β-hexosaminidase release (FIG. 3A) and LTC4 release (FIG. 3B) were measured. […]

Bounds are passed on as bounds.

Here are results for one molecule from US6391921B1 (priority 2000, dated 2002).

One may read the IC50 as the concentration that gives 50% inhibition. A high value points to a need for much substance.

T2 sequence (Q06187 whole entry, species assumed): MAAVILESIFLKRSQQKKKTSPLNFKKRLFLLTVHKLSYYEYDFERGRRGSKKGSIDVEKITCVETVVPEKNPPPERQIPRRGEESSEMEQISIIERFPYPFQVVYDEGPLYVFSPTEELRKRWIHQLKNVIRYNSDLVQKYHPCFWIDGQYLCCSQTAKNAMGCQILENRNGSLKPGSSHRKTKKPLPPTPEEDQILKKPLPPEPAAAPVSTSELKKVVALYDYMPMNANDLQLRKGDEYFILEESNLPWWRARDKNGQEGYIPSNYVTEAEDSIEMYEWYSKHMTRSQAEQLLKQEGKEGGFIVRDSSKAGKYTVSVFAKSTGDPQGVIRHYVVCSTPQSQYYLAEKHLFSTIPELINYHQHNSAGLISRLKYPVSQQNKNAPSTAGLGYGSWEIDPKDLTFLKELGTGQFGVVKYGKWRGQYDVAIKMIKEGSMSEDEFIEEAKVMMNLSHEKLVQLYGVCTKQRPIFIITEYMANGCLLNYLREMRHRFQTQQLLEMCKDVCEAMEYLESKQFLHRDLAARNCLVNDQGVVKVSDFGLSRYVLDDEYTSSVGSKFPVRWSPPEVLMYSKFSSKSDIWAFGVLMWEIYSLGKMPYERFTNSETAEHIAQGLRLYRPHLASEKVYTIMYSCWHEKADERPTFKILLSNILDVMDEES

`COc1ccc(CC(=O)c2c(O)cc(O)cc2O)cc1` [Compound D-58]: the IC50 against SYK (first experiment, FIG. 1B) was 36.9 µM; against SYK (second experiment, FIG. 1C) it was less than 10 µM; on BTK (first experiment, FIG. 1A) it was 18.6 µM; against BTK (second experiment, FIG. 1C), 35.5 µM. The “IgE/antigen induced LTC4 release” value with RBL-2H3 mast cells was “inhibited”.
